Test results from US12048306B1, “1,3-bis(naphthalen-1-yloxy)propan-2-one as an eco-friendly insecticidal agent against Spodoptera littoralis (boisd.)” (priority 2023, dated 2024).
≈ marks a conversion by molar mass, not a printed value. Read-outs that look alike come from different tables or passages of the source.

What was measured:
[1] = test system: Spodoptera littoralis; assay: Insecticidal leaf dip bioassay on S. littoralis larvae; conditions: for Toxicity ratio: 72 hours, fenoxycarb's LC50 / the compound's LC50; for LC50: Spodoptera littoralis, foliar, laboratory strain, 72 hours of treatment
Method: (§1) Five concentrations (200, 100, 50, 25, 12.5 ppm) were designed for this synthetic compound and the reference fenoxycarb's compound as the dynamic ingredients based on ppm via diluting the commercial formulation.
(§2) In this experiment, the synthetic compound was tested for its insecticidal bioactivity using the industry-standard leaf dip bioassay techniques. […] Until usage, the stocks were kept in a refrigerator. The target substance test results were noted & the concentrations needed to destroy 50% (LC50) of S. littoralis larvae were calculated. The target compound was employed in five different concentrations, & 0.1% Tween 80 was employed as a surfactant. Castor bean leaf discs (nine centimeters in diameter) were dipped in the concentration under test for ten seconds, then fed to 2th & 4th larvae, which were roughly the same size and housed in glass jars (five pound). Each action carried out 3 times with ten larvae each. The mortality equalized via Abbott's formula. Calculations of mortality setback line were measurably rummage via probity analysis. Harmfulness index was strongminded via sun equations. The mortality results of larval insect were estimated through employing probit analysis through a statistics (LDP-line) equation which estimate the LC50 values with 95% fiducially limits of lower, upper confidence limit and slope.

[2] = test system: Spodoptera littoralis; conditions: in vivo
Method: as §1, §2

[3] = test system: aquatic insects; conditions: highly toxic to very highly toxic; cited from earlier work

| SMILES | Toxicity ratio ([1]; 2nd instar larvae) | Toxicity ratio ([1]; 4th instar larvae) | LC50 ([1]; 72 h, 2nd instar larvae) [µg/mL] | LC50 ([1]; 72 h, 4th instar larvae) [µg/mL] | LC50 [2] | insecticidal activity against Spodoptera littoralis ([1]; 2nd and 4th instar larvae, 72 h, FIGS. 1A-1B, compared with the reference insecticide) | LC50 [3] [µg/mL] |
| --- | --- | --- | --- | --- | --- | --- | --- |
| CCOC(=O)NCCOc1ccc(Oc2ccccc2)cc1 [Fenoxycarb, fenoxycarb, reference compound] | 1 | 1 | 2.73 (≈ 9.06 µM) | 9.18 (≈ 30.5 µM) |  |  |  |
| O=C(COc1cccc2ccccc12)COc1cccc2ccccc12 [III, 1,3-bis(naphthalen-1-yloxy)propan-2-one] | 0.241 | 0.515 | 11.3 (≈ 33.1 µM) | ~17.8 (≈ 52 µM) | about 11.32 mg/L | active |  |
| CCc1ccc(C(=O)NN(C(=O)c2cc(C)cc(C)c2)C(C)(C)C)cc1 [tebufenozide] |  |  |  |  |  |  | 100 to 1000 |
